This is an account of results in ChEMBL document CHEMBL4610028, “Variegatic acid from the edible mushroom Tylopilus ballouii inhibits TNF-α production and PKCβ1 activity in leukemia cells” (Bioorg Med Chem Lett, 2020).

Each structure is given as a SMILES string.

The target in test [1] is T1, Protein kinase C beta type (Rattus norvegicus, UniProt P68403). Description: Inhibition of PKCbeta in rat RBL2H3 cells assessed as inhibition of anti-DNP IgE-stimulated TNFalpha release preincubated for 15 mins followed by mouse anti-DNP IgE stimulation and measured after 3 hrs by ELISA. In kind it is cell-based, RBL-2H3. (In an ELISA, binding on a coated surface is turned into a signal by an enzyme label.)

For test [2], the target named is T1, Protein kinase C beta type. In words: Inhibition of PKCbeta in rat RBL2H3 cells assessed as inhibition of ionomycin-stimulated TNFalpha release preincubated for 15 mins followed by ionomycin stimulation and measured after 3 hrs by ELISA. In kind it is cell-based, RBL-2H3.
Test [3] has as its target T1, Protein kinase C beta type. In words: Inhibition of PKCbeta in rat RBL2H3 cells assessed as inhibition of ionomycin-stimulated beta-hexosaminidase release preincubated for 15 mins followed by ionomycin stimulation and measured after 3 hrs by 4-nitropheny1-2-acetamide-2-deoxy-beta-glucopyranoside substrate based colorimetric method. In kind it is cell-based, RBL-2H3.

Test [4] has as its target Protein kinase C beta type (Homo sapiens, UniProt P05771). In words: Inhibition of recombinant full-length N-temrinal GST-tagged human PKC beta1 expressed in baculovirus infected Sf9 cells using TMB as substrate incubated for 4.5 hrs by colorimetric analysis.

T1 sequence (P68403 whole entry): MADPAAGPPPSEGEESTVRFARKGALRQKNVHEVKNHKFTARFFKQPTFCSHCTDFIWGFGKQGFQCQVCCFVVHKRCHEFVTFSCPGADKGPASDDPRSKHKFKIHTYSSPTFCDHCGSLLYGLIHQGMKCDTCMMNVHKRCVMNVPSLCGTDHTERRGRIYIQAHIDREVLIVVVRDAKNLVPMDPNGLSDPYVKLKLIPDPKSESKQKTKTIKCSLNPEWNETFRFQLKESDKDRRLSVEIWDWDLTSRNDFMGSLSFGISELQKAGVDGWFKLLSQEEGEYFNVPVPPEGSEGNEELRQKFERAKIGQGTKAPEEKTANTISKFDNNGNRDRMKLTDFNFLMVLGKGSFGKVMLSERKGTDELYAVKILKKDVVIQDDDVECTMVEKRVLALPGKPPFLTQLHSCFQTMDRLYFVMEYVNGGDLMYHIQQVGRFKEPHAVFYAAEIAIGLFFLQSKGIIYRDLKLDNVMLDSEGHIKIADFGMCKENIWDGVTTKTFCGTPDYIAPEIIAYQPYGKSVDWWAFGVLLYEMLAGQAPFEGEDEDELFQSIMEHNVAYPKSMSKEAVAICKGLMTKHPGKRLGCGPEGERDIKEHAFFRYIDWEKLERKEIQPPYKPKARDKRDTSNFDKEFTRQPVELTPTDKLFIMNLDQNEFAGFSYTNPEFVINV

As to `O=C1O/C(=C(/C(=O)O)c2ccc(O)c(O)c2)C(O)=C1c1ccc(O)c(O)c1`, the IC50 (commonly the concentration at which inhibition is half-maximal) in test [1] stood at 16.8 µM; in test [2], 20.1 µM; in test [3], 22.2 µM; in test [4], 36.2 µM. Moreover, the inhibition result in test [4] is “Dose-dependent effect”.
